Assay results from ChEMBL document CHEMBL2385043, “Recent advances in malaria drug discovery” (Bioorg Med Chem Lett, 2013).
pEC50, pIC50: −log10 of the molar value.

Tests used:
Plasmodium falciparum [1] = experiment: Antiplasmodial activity against multidrug-resistant Plasmodium falciparum W2 infected in human erythrocytes; type: functional, organism-based
[2] = Terminal half life in human; type: ADME, organism-based; conditions: in vivo, read-out: beta t1/2 (converted)
[3] = Half life in po dosed Sprague-Dawley rat by LC/MS/MS analysis; type: ADME, organism-based; conditions: in vivo
Plasmodium falciparum [4] = experiment: Antimalarial activity against Plasmodium falciparum VS/1 expressing DHFR quadruple mutation infected in po dosed SCID mouse assessed as reduction in parasitemia administered 3 days post infection measured on day 6; type: functional; conditions: VS/1, po
Plasmodium falciparum [5] = experiment: Antiplasmodial activity against Plasmodium falciparum VS/1 expressing DHFR quadruple mutation by [3H]-hypoxanthine incorporation assay; type: functional, organism-based
Plasmodium falciparum [6] = experiment: Antiplasmodial activity against wild type Plasmodium falciparum TM4 by [3H]-hypoxanthine incorporation assay; conditions: TM4, 3 h
[7] = Oral bioavailability in Sprague-Dawley rat; type: ADME, organism-based; conditions: in vivo
Plasmodium falciparum [8] = experiment: Antiplasmodial activity against drug-sensitive Plasmodium falciparum 3D7; type: functional, organism-based
Plasmodium berghei [9] = experiment: Antimalarial activity against Plasmodium berghei ANKA infected in mouse assessed as reduction in parasitemia at 40 mg/kg, ip relative to control; type: functional; conditions: route intraperitoneal
[10] = Inhibition of Plasmodium falciparum cytochrome b-c1 complex
Plasmodium yoelii = experiment: Antiplasmodial activity against liver stage of Plasmodium yoelii; type: functional, organism-based
Plasmodium falciparum [11] = experiment: Antiplasmodial activity against asexual blood stage of Plasmodium falciparum; type: functional, organism-based
Plasmodium falciparum [12] = experiment: Antiplasmodial activity against sexual blood stage of Plasmodium falciparum; type: functional, organism-based
[13] = Selectivity ratio of IC50 for human cytochrome b-c1 complex to IC50 for Plasmodium falciparum cytochrome b-c1 complex
[14] = Oral bioavailability in rat; type: ADME, organism-based; conditions: in vivo
[15] = Oral bioavailability in mouse; type: ADME, organism-based; conditions: in vivo
Plasmodium falciparum [16] = experiment: Antiplasmodial activity against multidrug-resistant Plasmodium falciparum Dd2 after 72 hrs by SYBR Green staining-based fluorescence assay; type: functional, organism-based; conditions: Dd2, 72 h
Plasmodium falciparum [17] = experiment: Antimalarial activity against Plasmodium falciparum infected in mouse; type: functional
Plasmodium falciparum [18] = experiment: Antiplasmodial activity against drug-sensitive Plasmodium falciparum 3D7 after 72 hrs by SYBR Green staining-based fluorescence assay; type: functional, organism-based; conditions: 3D7, 72 h
Plasmodium vinckei [19] = experiment: Antimalarial activity against Plasmodium vinckei infected in po dosed Swiss mouse; type: functional
Plasmodium falciparum [20] = experiment: Antiplasmodial activity against NITD609-resistant Plasmodium falciparum Dd2 infected in human erythrocytes after 48 hrs by [3H]-hypoxanthine incorporation assay; type: functional, organism-based
Plasmodium [21] = experiment: Antiplasmodial activity against Plasmodium; type: functional
Plasmodium [22] = experiment: Antimalarial activity against Plasmodium infected in ip dosed mouse; type: functional
Plasmodium vinckei [23] = experiment: Antimalarial activity against Plasmodium vinckei infected in ip dosed Swiss mouse at 5 to 10% parasitemia; type: functional
Plasmodium vinckei [24] = experiment: Antimalarial activity against Plasmodium vinckei infected in ip dosed Swiss mouse at 0.5 to 1% parasitemia; type: functional
Plasmodium falciparum [25] = experiment: Antiplasmodial activity against erythrocytic stage of multidrug-resistant Plasmodium falciparum K1; type: functional, organism-based
[26] = Half life in human; type: ADME, organism-based; conditions: in vivo
Plasmodium berghei [27] = experiment: Antimalarial activity against erythrocytic stage of Plasmodium berghei infected in po dosed mouse administered for 3 days; type: functional; conditions: 72 h
Plasmodium falciparum [28] = experiment: Antimalarial activity against Plasmodium falciparum infected in SCID mouse; type: functional
Plasmodium falciparum [29] = experiment: Antiplasmodial activity against drug-sensitive Plasmodium falciparum NF54; type: functional, organism-based
Plasmodium falciparum [30] = experiment: Antiplasmodial activity against multidrug-resistant Plasmodium falciparum W2 infected in human erythrocytes after 72 hrs by ELISA; type: functional, organism-based; conditions: W2, 72 h
Plasmodium falciparum [31] = experiment: Antimalarial activity against multidrug-resistant Plasmodium falciparum W2 infected in ip dosed mouse assessed as reduction in parasitemia administered on day 64 post-infection; type: functional; conditions: 1536 h
Plasmodium yoelii yoelii = experiment: Antimalarial activity against Plasmodium yoelii yoelii infected in mouse; type: functional
Plasmodium falciparum [32] = experiment: Antiplasmodial activity against Plasmodium falciparum by SYBR Green staining-based fluorescence assay; type: functional, organism-based

## CCCCN(CCCC)CC(O)c1cc(Cl)cc2c1-c1ccc(Cl)cc1/C2=C/c1ccc(Cl)cc1 (centres undefined) [LUMEFANTRINE]
Plasmodium falciparum [1]
  pEC50: 9.35
[2]
  half-life: 72 h

## CCc1nc(N)nc(N)c1OCCCOc1ccccc1CCC(=O)O.Cl
[3]
  half-life: 7.3 h
Plasmodium falciparum [4]
  ED50: 0.3 mg/kg/day
Plasmodium falciparum [5]
  pIC50: 7.25
Plasmodium falciparum [6]
  pIC50: 8.34
[7]
  bioavailability: 46%

## COc1cc2c(NC3CCN(C)CC3)nc(N3CCCN(C)CC3)nc2cc1OCc1ccccc1
Plasmodium falciparum [8]
  pEC50: 7.00
Plasmodium berghei [9]
  fold change (FC): 18

## CCCCCCCCCCOc1cc2c(O)c(C(=O)OCC)cnc2cc1OCC [DECOQUINATE]
[10]
  pIC50: 8.70
Plasmodium yoelii
  pEC50: 8.59
Plasmodium falciparum [11]
  pEC50: 8.00
Plasmodium falciparum [12]
  pEC50: 7.44
[13]
  Ratio IC50: > 5000

## CN1CCN(C2CCN(C(=O)CC3CCC4(CC3)OOC3(OO4)C4CC5CC(C4)CC3C5)CC2)CC1.Cc1ccc(S(=O)(=O)O)cc1 (centres undefined)
[14]
  bioavailability: 38%
[15]
  bioavailability: 42%

## CCOc1ccc(F)cc1C1(O)C(N)=Nc2ccc(Cl)cc21 (centres undefined)
Plasmodium falciparum [16]
  pEC50: 7.19
Plasmodium falciparum [17]
  ED99: 100 mg/kg/day
Plasmodium falciparum [18]
  pEC50: 7.55

## C/C(=C1\CCOC(=O)S1)N(C=O)CCCCCCCCCCCCN(C=O)/C(C)=C1/CCOC(=O)S1
Plasmodium vinckei [19]
  ED50: 5 mg/kg/day
[14]
  bioavailability: 15%

## C[C@@H]1CC[C@H]2[C@@H](C)C(=O)O[C@@H]3O[C@@]4(C)CC[C@@H]1[C@]32OO4 [ARTEMISININ]
Plasmodium falciparum [20]
  pEC50: 7.82

## Cc1c(CCO)sc[n+]1CCCCCCCCCCCC[n+]1csc(CCO)c1C.[I-].[I-]
Plasmodium [21]
  pEC50: 8.70
Plasmodium vinckei [19]
  ED50: 13 mg/kg/day
Plasmodium [22]
  ED50: 0.2 mg/kg/day
Plasmodium vinckei [23]
  ED50: ≤ 0.5 mg/kg/day
Plasmodium vinckei [24]
  ED50: 1 mg/kg/day
[15]
  bioavailability: 2%

## CSc1ccc2nc(N(Cc3cccnc3)C(=O)c3ccc(C(C)(C)C)cc3)sc2c1
Plasmodium falciparum [25]
  pEC50: 6.49

## CO[C@H]1O[C@@H]2O[C@@]3(C)CC[C@H]4[C@H](C)CC[C@@H]([C@H]1C)[C@@]24OO3
[26]
  half-life: 1 h

## CC(=O)N1CCN(c2ccc(CN(C(=O)/C=C/c3ccc(C(F)(F)F)cc3)[C@@H](Cc3ccccc3)C(=O)N3CCN(Cc4ccc(N(C)CCO)cc4)CC3)cc2)CC1
Plasmodium berghei [27]
  ED90: 54 mg/kg/day
Plasmodium falciparum [28]
  ED90: 8.4 mg/kg/day
Plasmodium falciparum [29]
  pEC50: 9.00

## Clc1ccc2c(N3CCN(CCCN4CCN(c5ccnc6cc(Cl)ccc56)CC4)CC3)ccnc2c1 [PIPERAQUINE]
[26]
  half-life: 192 h
Plasmodium falciparum [30]
  pEC50: 7.90
Plasmodium falciparum [31]
  ED50: 4.5 mg/kg

## C[C@@]12OC(=O)[C@]1([C@@H](O)[C@@H]1C=CCCC1)NC(=O)[C@@H]2CCCl [MARIZOMIB]
Plasmodium yoelii yoelii
  ED50: 0.25 mg/kg/day
Plasmodium falciparum [32]
  pEC50: 7.96

## CCN(CC)Cc1cc(Nc2ccnc3cc(Cl)ccc23)ccc1O
Plasmodium falciparum [8]
  pEC50: 7.96
